How the values were obtained:
[1] = Biological activity expressed as the Log potency ratio (PR) of the compound relative to a standard compound 63; type: ADME; conditions: octanol/water
[2] = system: Monkey; assay: In vitro inhibition of anti-IgE induced histamine release from bronchoalveolar mast cells of monkey infected with Ascaris suum; type: functional, Cercopithecidae, Lung
[3] = Dissociation constant (eq 2); type: physicochemical; conditions: read-out: pK3
[4] = log PR value (eq 2); type: ADME; conditions: octanol/water
[5] = log PR value using spectrophotometric method; type: ADME; conditions: octanol/water
[6] = Dissociation constant using spectrophotometric method; type: physicochemical
[7] = Dissociation constant (pKa1) using partition method; type: physicochemical; conditions: read-out: pKa1
[8] = Dissociation constant (pKa2) using partition method; type: physicochemical; conditions: read-out: pKa2

CCCc1c2nc(C(=O)[O-])cc(C3OCCCO3)c2cc2c(=O)cc(C(=O)[O-])oc12.[Na+].[Na+]
Log PR [1]: -0.75
Potency ratio [2]: 0.179

CCCc1c2nc(C(=O)[O-])cc(C(F)(F)C(F)(F)F)c2cc2c(=O)cc(C(=O)[O-])oc12.[Na+].[Na+]
Log PR [1]: 0.45
Potency ratio [2]: 2.83

CCCc1c2nc(C(=O)[O-])cc(O)c2cc2c(=O)cc(C(=O)[O-])oc12.[Na+].[Na+]
Log PR [1]: 0.37
Potency ratio [2]: 2.366

CCCc1c2nc(C(=O)[O-])cc(S(=O)Oc3ccccc3)c2cc2c(=O)cc(C(=O)[O-])oc12.[Na+].[Na+] (stereo not drawn)
Log PR [1]: -0.27
Potency ratio [2]: 0.536

CCCc1c2nc(C(=O)[O-])cc(C(F)F)c2cc2c(=O)cc(C(=O)[O-])oc12.[Na+].[Na+]
Log PR [1]: -0.23
Potency ratio [2]: 0.586

CCCc1c2nc(C(=O)[O-])cc(C=O)c2cc2c(=O)cc(C(=O)[O-])oc12.[Na+].[Na+]
Log PR [1]: -0.63
Potency ratio [2]: 0.237

CCCc1c2nc(C(=O)[O-])cc(NC(=O)Nc3ccccc3)c2cc2c(=O)cc(C(=O)[O-])oc12.[Na+].[Na+]
Log PR [1]: -0.05
Potency ratio [2]: 0.895

CCCc1c2nc(C(=O)[O-])cc(NC(C)=O)c2cc2c(=O)cc(C(=O)[O-])oc12.[Na+].[Na+]
Log PR [1]: -1.19
Potency ratio [2]: 0.065

CCCc1c2nc(C(=O)[O-])ccc2cc2c(=O)cc(C(=O)[O-])oc12.[Na+].[Na+]
Log PR [1]: -1
Potency ratio [2]: 0.1

CCCc1c2nc(C(=O)[O-])cc(C(F)(F)C(F)(F)C(F)(F)F)c2cc2c(=O)cc(C(=O)[O-])oc12.[Na+].[Na+]
Log PR [1]: 0.57
Potency ratio [2]: 3.725

CCCc1c2nc(C(=O)[O-])cc(Sc3ccccc3)c2cc2c(=O)cc(C(=O)[O-])oc12.[Na+].[Na+]
Log PR [1]: 0.88
Potency ratio [2]: 7.54

CCCc1c2nc(C(=O)[O-])cc(/C=C/c3ccccc3)c2cc2c(=O)cc(C(=O)[O-])oc12.[Na+].[Na+]
Log PR [1]: 0.8
Potency ratio [2]: 6.326

CCCc1c2nc(C(=O)[O-])cc(N3CCCC3)c2cc2c(=O)cc(C(=O)[O-])oc12.[Na+].[Na+]
Log PR [1]: 0.14
Potency ratio [2]: 0.017
pKa [3]: 8.75
Log PR [4]: -1.25

CCCc1c2nc(C(=O)[O-])cc(-n3cccc3)c2cc2c(=O)cc(C(=O)[O-])oc12.[Na+].[Na+]
Log PR [1]: 0.43
Potency ratio [2]: 2.686

CCCc1c2nc(C(=O)[O-])cc(Oc3ccccc3)c2cc2c(=O)cc(C(=O)[O-])oc12.[Na+].[Na+]
Log PR [1]: 0.51
Potency ratio [2]: 3.244

CCCc1c2nc(C(=O)[O-])cc(Nc3ccccc3)c2cc2c(=O)cc(C(=O)[O-])oc12.[Na+].[Na+]
Log PR [5]: 0.39
Log PR [1]: -0.15
Potency ratio [2]: 0.706
pKa [6]: 7.78

CCCc1c2nc(C(=O)[O-])cc(/C=N/NC(=O)c3ccccc3)c2cc2c(=O)cc(C(=O)[O-])oc12.[Na+].[Na+]
Log PR [1]: -0.13
Potency ratio [2]: 0.748

CCCc1c2nc(C(=O)[O-])cc(C(F)(F)F)c2cc2c(=O)cc(C(=O)[O-])oc12.[Na+].[Na+]
Log PR [1]: 0.4
Potency ratio [2]: 2.53

CCCc1c2nc(C(=O)[O-])cc(Br)c2cc2c(=O)cc(C(=O)[O-])oc12.[Na+].[Na+]
Log PR [1]: 0.02
Potency ratio [2]: 1.04

CCCc1c2nc(C(=O)[O-])cc(Cl)c2cc2c(=O)cc(C(=O)[O-])oc12.[Na+].[Na+]
Log PR [1]: 0.04
Potency ratio [2]: 1.096

CCCc1c2nc(C(=O)[O-])cc(C(=O)[O-])c2cc2c(=O)cc(C(=O)[O-])oc12.[Na+].[Na+].[Na+]
Log PR [1]: -1.27
Potency ratio [2]: 0.053

CCCc1c2nc(C(=O)[O-])cc(NCC)c2cc2c(=O)cc(C(=O)[O-])oc12.[Na+].[Na+]
Log PR [5]: -0.89
Log PR [1]: -2.15
Potency ratio [2]: 0.007
pKa [6]: 8.64

CCCc1c2nc(C(=O)[O-])cc(OCC)c2cc2c(=O)cc(C(=O)[O-])oc12.[Na+].[Na+]
Log PR [1]: -0.4
Potency ratio [2]: 0.4

CCCCCNc1cc(C(=O)[O-])nc2c(CCC)c3oc(C(=O)[O-])cc(=O)c3cc12.[Na+].[Na+]
Log PR [5]: 0.05
Log PR [1]: -1.27
Potency ratio [2]: 0.053
pKa [6]: 8.7

CCCc1c2nc(C(=O)[O-])cc(SCC)c2cc2c(=O)cc(C(=O)[O-])oc12.[Na+].[Na+]
Log PR [1]: 0.35
Potency ratio [2]: 2.249

CCCc1c2nc(C(=O)[O-])cc(C)c2cc2c(=O)cc(C(=O)[O-])oc12.[Na+].[Na+]
Log PR [1]: -0.42
Potency ratio [2]: 0.379

CCCc1c2nc(C(=O)[O-])cc(N)c2cc2c(=O)cc(C(=O)[O-])oc12.[Na+].[Na+]
Log PR [1]: 0.12
Potency ratio [2]: 0.057
pKa [3]: 8.75
Log PR [4]: -1.25

CCCc1c2nc(C(=O)[O-])cc(N(C)C)c2cc2c(=O)cc(C(=O)[O-])oc12.[Na+].[Na+]
Log PR [1]: -0.29
Potency ratio [2]: 0.063
pKa [3]: 8.26
Log PR [4]: -1.2

CCCc1c2nc(C(=O)[O-])cc(C#N)c2cc2c(=O)cc(C(=O)[O-])oc12.[Na+].[Na+]
Log PR [1]: 0.07
Potency ratio [2]: 1.161

CCCc1c2nc(C(=O)[O-])cc(NC)c2cc2c(=O)cc(C(=O)[O-])oc12.[Na+].[Na+]
pKa [7]: 0.5
pKa [8]: 1.62
Log PR [1]: -0.66
Potency ratio [2]: 0.012
pKa [3]: 8.63
Log PR [4]: -1.91

CCCc1c2nc(C(=O)[O-])cc(N(C)C(C)=O)c2cc2c(=O)cc(C(=O)[O-])oc12.[Na+].[Na+]
Log PR [1]: -2.05
Potency ratio [2]: 0.009

— ChEMBL document CHEMBL1124264, “Predictive structure-activity relationships in a series of pyranoquinoline derivatives. A new primate model for the identification of antiallergic activity” (J Med Chem, 1988)
